According to patent US10849878B2 (OBSHCHESTVO S OGRANICHENNOY OTVETSTVENNOSTYU “NORMOFARM”, priority 2015, dated 2020):
Values joined by “and” are separate entries in the source; they are usually repeats but may differ in a detail not shown here. Identical values can stand only once. Like-named read-outs stand apart in the source and are kept apart here.

Columns and labels:
white Wistar rats [1] = assay: suspension test (24 h), antistress and anxiolytic activity; assay type: in vivo, rat
Description: The anti-stress, anxiolytic and antidepressant effects of the claimed agent and compositions on its basis were determined as follows. […] The suspension test. Five animals from each group were used. Each animal was suspended for 24 hours. After that the sample of whole blood was taken from the sublingual vessels of that animal Then the animal was placed in a desiccator with diethyl ether. 60 minutes later a spinal decapitation of the animal was performed. The abdominal opening was performed and the number of ulcers on the inner surface of the stomach was counted. The obtained whole blood was placed in two test tubes. The whole blood was used to determine the number of eosinophils by the Duncker method. Serum was used to determine the biochemical composition of the blood. Adrenaline and norepinephrine were determined as biochemical indices. These characteristics are specific markers identifying the impact of stress factors of various etiologies. • 2. The transport stress simulation test. Five animals from each group were used. The animals were placed in cages fixed on a laboratory shutter. The duration of the test was 240 minutes. At the end of the test the animals were examined by the techniques described in paragraph 1. A sample of whole blood was taken to determine the number of eosinophils by the Duncker method. The blood serum was studied to measure the amount of enzymes: alanine aminotransferase (ALT), aspartate aminotransferase (AST), creatinine
The tests were carried out on 2-month-old rats of the Wistar line. The groups were selected according to the principle of paired counterparts.
During the course of the study the animals were selected from the formed groups of 10 animals each to participate in stress tests, 5 animals per test. The selection was made on the 7th, 14th, 21st day of the drug administration (experiments were performed on the same days right after selection). The animals were weighed weekly immediately before testing. The obtained data were processed by statistical methods of mathematical statistics. The drug was administered to the animals of the 2nd, 3rd and 4th groups in solution through a gastric tube. Water for injection produced by the “Bufus Novosibkhimpharm” was used as a solvent. The introduced volume was 1.5 ml. The solution was introduced at the same tine 2 hours after morning feeding. The first group was given water for injection by the same way. The volume of administration was 1.5 ml.
During the test a change in the reaction of the animals was observed during prolonged administration of the preparation. Three sequences of the experiment were performed with a periodicity of 7 days. The drug was administered from the first day of the study daily without a break. Thus, accumulation of the drug in the animal body occurred. Five animals from each group were used in each sequence of the experiment (the animals were suspended for 24 hours). After this, blood samples were taken from the sublingual vessels. Further, the animal was euthanized with diethyl ether. Decapitation and dissection of the abdominal cavity were performed to calculate the number of ulcers on the inner surface of the stomach. The rats as objects for the study of psychotropic drugs are a successful model. They react quickly to various stress factors. It is convenient to evaluate the efficacy of drugs due to various factors beginning with physiological, behavioral, biochemical and other parameters. In the suspension test, it is possible to determine the overall psycho-emotional state of the animal in addition to physical endurance.
The physiological, morphological and biochemical characteristics, such as the determination of ulcers in the stomach, eosinophils in whole blood, epinephrine and norepinephrine in blood serum were estimated as main and most informative indicators of the onset of a stress state in a living organism and of overall impact on the body. […]

male Wistar rats = settings: for Dead / Survived: 6 rats
white Wistar rats [2] = assay: suspension test (24 h), antistress and anxiolytic activity; assay type: in vivo, rat; settings: 60 mg/kg in the form of pills with cocoa, administration day 7
[3] = 30 mg/kg solution by gastric tube, administration day 7
[4] = 30 mg/kg solution by gastric tube, administration day 14
[5] = 30 mg/kg solution by gastric tube, administration day 21
[6] = 60 mg/kg in the form of pills with cocoa, administration day 7
[7] = 60 mg/kg in the form of pills with cocoa, administration day 14
[8] = 60 mg/kg in the form of pills with cocoa, administration day 21
[9] = 60 mg/kg solution by gastric tube, administration day 7
[10] = 60 mg/kg solution by gastric tube, administration day 14
[11] = 60 mg/kg solution by gastric tube, administration day 21
[12] = 120 mg/kg solution by gastric tube, administration day 7
[13] = 120 mg/kg solution by gastric tube, administration day 14
[14] = 120 mg/kg solution by gastric tube, administration day 21
[15] = single oral dose 6000 mg/kg, 6000 mg/kg
[16] = single oral dose 7000 mg/kg, 7000 mg/kg

Compound: O=C1O[C@H]([C@@H](O)CO)C([O-])=C1O.[Li+] [lithium ascorbate]
- Adrenaline level in blood serum (white Wistar rats [1]; [3]): 8.1 ± 0.52 µg/L
- Eosinophil count in whole blood (white Wistar rats [1]; [3]): 764 ± 6.5
- Noradrenaline level in blood serum (white Wistar rats [1]; [3]): 24.3 ± 2.2 µg/L
- Number of ulcers in the stomach (white Wistar rats [1]; [3]): 4.5 ± 0.9
- Adrenaline level in blood serum (white Wistar rats [1]; [4]): 6.9 ± 2.77 µg/L
- Eosinophil count in whole blood (white Wistar rats [1]; [4]): 897 ± 7.2
- Noradrenaline level in blood serum (white Wistar rats [1]; [4]): 18.2 ± 5.28 µg/L
- Number of ulcers in the stomach (white Wistar rats [1]; [4]): 2.4 ± 0.2
- Adrenaline level in blood serum (white Wistar rats [1]; [5]): 6.9 ± 0.97 µg/L
- Eosinophil count in whole blood (white Wistar rats [1]; [5]): 954 ± 9.7
- Noradrenaline level in blood serum (white Wistar rats [1]; [5]): 17.9 ± 0.95 µg/L
- Number of ulcers in the stomach (white Wistar rats [1]; [5]): 1.9 ± 0.4
- Eosinophil count in whole blood (white Wistar rats [1]; [6]): 653 ± 9.2
- Noradrenaline level in blood serum (white Wistar rats [1]; [6]): 54.8 ± 10.4 µg/L
- Number of ulcers in the stomach (white Wistar rats [1]; [6]): 8.7 ± 1.2
- Adrenaline level in blood serum (white Wistar rats [1]; [7]): 6.7 ± 0.96 µg/L
- Eosinophil count in whole blood (white Wistar rats [1]; [7]): 913 ± 0.9
- Noradrenaline level in blood serum (white Wistar rats [1]; [7]): 18.4 ± 0.49 µg/L
- Number of ulcers in the stomach (white Wistar rats [1]; [7]): 1.6 ± 0.9
- Adrenaline level in blood serum (white Wistar rats [1]; [8]): 7.9 ± 3.61 µg/L
- Eosinophil count in whole blood (white Wistar rats [1]; [8]): 954 ± 3.6
- Noradrenaline level in blood serum (white Wistar rats [1]; [8]): 17.8 ± 0.98 µg/L
- Number of ulcers in the stomach (white Wistar rats [1]; [8]): 1.5 ± 0.6
- Adrenaline level in blood serum (white Wistar rats [1]; [9]): 7.9 ± 0.21 µg/L
- Eosinophil count in whole blood (white Wistar rats [1]; [9]): 791 ± 1.2
- Noradrenaline level in blood serum (white Wistar rats [1]; [9]): 22.1 ± 1.98 µg/L
- Number of ulcers in the stomach (white Wistar rats [1]; [9]): 4.1 ± 0.8
- Adrenaline level in blood serum (white Wistar rats [1]; [10]): 7.1 ± 1.19 µg/L
- Eosinophil count in whole blood (white Wistar rats [1]; [10]): 866 ± 9.4
- Noradrenaline level in blood serum (white Wistar rats [1]; [10]): 20.3 ± 3.49 µg/L
- Number of ulcers in the stomach (white Wistar rats [1]; [10]): 2.6 ± 0.4
- Adrenaline level in blood serum (white Wistar rats [1]; [11]): 7.3 ± 2.14 µg/L
- Eosinophil count in whole blood (white Wistar rats [1]; [11]): 910 ± 4.1
- Noradrenaline level in blood serum (white Wistar rats [1]; [11]): 19.3 ± 6.13 µg/L
- Number of ulcers in the stomach (white Wistar rats [1]; [11]): 2.4 ± 0.5
- Adrenaline level in blood serum (white Wistar rats [1]; [12]): 7.6 ± 0.38 µg/L
- Eosinophil count in whole blood (white Wistar rats [1]; [12]): 768 ± 6.7
- Noradrenaline level in blood serum (white Wistar rats [1]; [12]): 20.2 ± 5.67 µg/L
- Number of ulcers in the stomach (white Wistar rats [1]; [12]): 4.0 ± 0.5
- Adrenaline level in blood serum (white Wistar rats [1]; [13]): 8.7 ± 3.82 µg/L
- Eosinophil count in whole blood (white Wistar rats [1]; [13]): 885 ± 3.8
- Noradrenaline level in blood serum (white Wistar rats [1]; [13]): 20.3 ± 4.83 µg/L
- Number of ulcers in the stomach (white Wistar rats [1]; [13]): 2.5 ± 1.1
- Adrenaline level in blood serum (white Wistar rats [1]; [14]): 9.6 ± 3.28 µg/L
- Eosinophil count in whole blood (white Wistar rats [1]; [14]): 911 ± 8.2
- Noradrenaline level in blood serum (white Wistar rats [1]; [14]): 18.4 ± 5.27 µg/L
- Number of ulcers in the stomach (white Wistar rats [1]; [14]): 2.1 ± 0.7
- all measured characteristics versus the control group (group #1) (white Wistar rats [1]; all the tests, oral aqueous solutions): 2.5-3.5 times
- number of defecation acts, control animals versus treated animals (white Wistar rats [1]; control more than treated): 3-4 times
- ulcer count versus the control group (group #1) (white Wistar rats [1]; oral aqueous solutions): more than 10 times
- decrease in the level of adrenaline and norepinephrine (white Wistar rats [1]; versus control): 3,5-4 times
- LD100 (male Wistar rats; oral, white rats of the Wistar line): 8000 mg/kg
- Dead, % (male Wistar rats; single oral dose 1000 mg/kg): 0%
- Dead (male Wistar rats; single oral dose 1000 mg/kg): 0
- Survived (male Wistar rats; single oral dose 1000 mg/kg): 6
- Dead, % (male Wistar rats; single oral dose 2000 mg/kg): 0%
- Dead (male Wistar rats; single oral dose 2000 mg/kg): 0
- Survived (male Wistar rats; single oral dose 2000 mg/kg): 6
- Dead, % (male Wistar rats; single oral dose 3000 mg/kg): 0%
- Dead (male Wistar rats; single oral dose 3000 mg/kg): 0
- Survived (male Wistar rats; single oral dose 3000 mg/kg): 6
- Dead, % (male Wistar rats; single oral dose 4000 mg/kg): 0%
- Dead (male Wistar rats; single oral dose 4000 mg/kg): 0
- Survived (male Wistar rats; single oral dose 4000 mg/kg): 6
- Dead, % (male Wistar rats; single oral dose 5000 mg/kg): 16.6%
- Dead (male Wistar rats; single oral dose 5000 mg/kg): 1
- Survived (male Wistar rats; single oral dose 5000 mg/kg): 5
- Dead, % (male Wistar rats; single oral dose 6000 mg/kg): 50%
- Dead (male Wistar rats; [15]): 3 and 3/3
- Survived (male Wistar rats; [15]): 3 and 3/3
- Dead, % (male Wistar rats; single oral dose 7000 mg/kg): 50%
- Dead (male Wistar rats; [16]): 3 and 3/3
- Survived (male Wistar rats; [16]): 3 and 3/3
- Survived (male Wistar rats; single oral dose 8000 mg/kg): 0
- Adrenaline level in blood serum (white Wistar rats [2]): 22.6 ± 4.27 µg/L
